Laboratory results taken from patent US9422254B2, “Methoxyacrylate-based fungicide and methods for preparing and using the same” (priority 2008, dated 2016).

Experiments:
quail = assay: Acute oral toxicity test on quail; type: in vivo
Protocol: After acute toxicity and Ames test had been finished, environmental toxicity test was conducted following “Guideline for Environmental Safety Evaluation of Chemical Pesticides” of Agriculture Ministry of China by Shenyang Chemical Research Institute/Supervision and Test Center for Pesticide Safety Evaluation and Quality Control.

[1] = tested on: Rhizoctonia solani (wheat sheath blight); assay: microbe, parasite or virus in culture; type: cell-based; conditions: read-out: Inhibition rate (%)
Pyricularia oryzae = assay: microbe, parasite or virus in culture; type: cell-based; conditions: read-out: Inhibition rate (%)
[2] = tested on: Colletotrichum gloeosporioides (first entry, r49); assay: In vitro inhibition, pathogens from tropical plants; type: cell-based
Protocol: (§1) 5 wt % formulation of the active compound of Formula (I) was prepared into a solution (300 mg/L). To a sterilized Erlenmeyer flask, 2 mL of the solution and 18 mL of PDA culture medium (50° C.) were added. The mixture was shaken uniformly and dumped into two dishes whose diameter was 9 cm to yield two toxic PDA culture mediums having a concentration of 30 mg/L. Various cultured pathogens were punched at the edge of colony by a puncher having a diameter of 5 mm respectively, and the obtained pieces were transferred to the center of the toxic PDA culture medium by an inoculating needle and cultured in an incubator at 25° C. Repeat the above steps. According to the growth status of CK colony, the colony diameter of pathogens was measured by crossing method with a caliper and thereby a corrected inhibition percentage was calculated.
(§2) For each colony, diameter was measured twice by crossing method and the average was practicable. The colony growth inhibition rate was calculated as follows: Colony growth inhibition rate %=(diameter of CK colony−diameter of target colony)×100/diameter of CK colony
(§3) Following the above method, as targets 17 pathogens originated from tropical plants were tested. The pathogens were Rhizopus sp., Aspergillus, Colletotrichum gloeosporioides Penz, Banana Fusarium wilt, Colletouichum coccodes, Hughas, B. heveas, Cucumber mosaic virusstrain banana, Banana Sigatoka Leaf Spot Disease, Colletotrichum gloeosporioides, Colletotrichum musae (Berk & Curt) Arx, Botryodiplodia theobromae, Cladosporium cucumerinum Ellis et Arthur, Periconia hevenae, Colletotrichum gloeosporioides, B. cinerea, Diplodia natalensis, and Curvularia.

B. heveas = assay: as above; type: cell-based
Protocol: as §1, §2, §3

Diplodia natalensis = assay: as above; type: cell-based
Protocol: as §1, §2, §3

[3] = tested on: Botryodiplodia theobromae; assay: as above; type: cell-based; conditions: Lasiodiplodia theobromae
Protocol: as §1, §2, §3

[4] = tested on: Colletotrichum gloeosporioides Penz; assay: as above; type: cell-based
Protocol: as §1, §2, §3

[5] = tested on: Colletotrichum gloeosporioides (second entry, r74); assay: as above; type: cell-based
Protocol: as §1, §2, §3

Banana Fusarium wilt = assay: as above; type: cell-based
Protocol: as §1, §2, §3

[6] = tested on: Colletouichum coccodes. Hughas; assay: as above; type: cell-based
Protocol: as §1, §2, §3

[7] = tested on: Banana Sigatoka Leaf Spot Disease; assay: as above; type: cell-based
Protocol: as §1, §2, §3

Aspergillus = assay: as above; type: cell-based
Protocol: as §1, §2, §3

Rhizopus sp. = assay: as above; type: cell-based
Protocol: as §1, §2, §3

[8] = tested on: Cucumber mosaic virusstrain banana; assay: as above; type: cell-based
Protocol: as §1, §2, §3

Ames test = type: cell-based
Protocol: The toxicological indexes of the compound were tested following the standard GB15670-1995 “Toxicological test methods of pesticides for registration” by Tongji Medical College, Huazhong University of Science and Technology.

[9] = tested on: Rice sheath blight (strain WK-1); assay: In vivo micro-screening assay
Protocol: In Vivo Micro-Screening Assay
To further study the fungicidal spectrum of the compound of Formula (I), indoor in vivo micro-screening assay were carried out on cucumber gray mold, cucumber scab, cucumber sclerotinia rot, cucumber brown spot, pepper phytophthora blight, and rice sheath blight.
Cucumber scab strain: HX; cucumber brown spot strain: SDHGHB060509; cucumber sclerotinia rot strain: HGJH; pepper phytophthora blight strain: NSGP; and rice sheath blight strain: WK-1.
Medicament to be tested and medicament of control groups were prepared as needed in a sunny morning. Cucumber gray mold, cucumber scab, cucumber brown spot, cucumber sclerotinia rot, and rice sheath blight were medicated by spray, and after air dry, pathogens of cucumber scab and of cucumber brown spot were inoculated through spraying spore suspension respectively, pathogens of cucumber gray mold, of cucumber sclerotinia rot, and of rice sheath blight were inoculated through lawn foliage. Pepper phytophthora blight was medicated and inoculated by root-irrigation. Subsequently, all seedlings were cultured in wet environment.
After the disease of control groups were serious, spot area, disease index, and the diseased seedling rate were investigated to calculate the efficacy. Cucumber scab, cucumber brown spot, and pepper phytophthora blight were investigated by grading method. The spot extension area of cucumber gray mold and of rice sheath blight was investigated. The diseased seedling rate of cucumber sclerotinia rot was investigated. Disease index=Σ(amount of infected diseased leaves in a grade×relative value of the grade)×100/(total amount of leaves×9); Diseased seedling rate (%)=(total amount of seedlings−amount of diseased seedlings)/total amount of seedlings×100% Prevention and treatment effect (%)=(disease of control group−disease of experiment group)/disease of control group×100%

Helminthosporum maydis = assay: organism not typed; type: cell-based
[10] = 0.1 mg/L, read-out: Inhibition rate (%)
[11] = 1 mg/L, read-out: Inhibition rate (%)
[12] = 5 mg/L, read-out: Inhibition rate (%)
[13] = 10 mg/L, read-out: Inhibition rate (%)
[14] = 20 mg/L, read-out: Inhibition rate (%)
[15] = 15 mg/L, read-out: Inhibition rate (%)
[16] = 25 mg/L, read-out: Inhibition rate (%)
[17] = 50 mg/L, read-out: Inhibition rate (%)

Compound: CO/C=C(/C(=O)OC)c1ccccc1CSc1nc2cc(OC)ccc2s1 [Compound of Formula (I), (E)-methyl 3-methoxy-2-(2-((5-methoxy-benzothiazol-2-ylthio)methyl)phenyl)acrylate]
- LC50 (quail): LC50 > 1100 mg/kg.bw
- inhibition at 0.3 µg/mL ([1]; 0.3 mg/L): 22.2%
- inhibition at 3 µg/mL ([1]; 3 mg/L): 44.4%
- inhibition at 30 µg/mL ([1]; 30 mg/L): 68.5%
- inhibition at 0.3 µg/mL (Pyricularia oryzae): 23.6%
- inhibition at 3 µg/mL (Pyricularia oryzae): 56.5%
- inhibition at 30 µg/mL (Pyricularia oryzae): 82.6%
- EC50 [2]: 1.97 µg/mL
- inhibition at 0.1 µg/mL [2, 10]: 18.2%
- inhibition at 1 µg/mL [2, 11]: 42.4%
- inhibition at 5 µg/mL [2, 12]: 55.9%
- inhibition at 10 µg/mL [2, 13]: 69.4%
- inhibition at 20 µg/mL [2, 14]: 83.2%
- EC50 (B. heveas): 1.99 µg/mL
- inhibition at 0.1 µg/mL (B. heveas; [10]): 9.09%
- inhibition at 1 µg/mL (B. heveas; [11]): 43.9%
- inhibition at 5 µg/mL (B. heveas; [12]): 61.4%
- inhibition at 10 µg/mL (B. heveas; [13]): 70.5%
- inhibition at 15 µg/mL (B. heveas; [15]): 81.4%
- EC50 (Diplodia natalensis): 1.7 µg/mL
- inhibition at 0.1 µg/mL (Diplodia natalensis; [10]): 20.7%
- inhibition at 1 µg/mL (Diplodia natalensis; [11]): 40.2%
- inhibition at 5 µg/mL (Diplodia natalensis; [12]): 60.7%
- inhibition at 10 µg/mL (Diplodia natalensis; [13]): 73.7%
- inhibition at 20 µg/mL (Diplodia natalensis; [14]): 82.3%
- EC50 [3]: 3.7 µg/mL
- inhibition at 0.5 µg/mL ([3]; 0.5 mg/L, read-out: Inhibition rate (%)): 14.6%
- inhibition at 1 µg/mL [3, 11]: 31.7%
- inhibition at 5 µg/mL [3, 12]: 51.6%
- inhibition at 10 µg/mL [3, 13]: 65.8%
- inhibition at 20 µg/mL [3, 14]: 84%
- EC50 [4]: 4.63 µg/mL
- inhibition at 0.1 µg/mL [4, 10]: 16.7%
- inhibition at 1 µg/mL [4, 11]: 31.1%
- inhibition at 5 µg/mL [4, 12]: 50.2%
- inhibition at 10 µg/mL [4, 13]: 54.9%
- inhibition at 25 µg/mL [4, 16]: 69.3%
- inhibition at 50 µg/mL [4, 17]: 80.9%
- EC50 [5]: 6.92 µg/mL
- inhibition at 0.1 µg/mL [5, 10]: 7.12%
- inhibition at 1 µg/mL [5, 11]: 19.3%
- inhibition at 5 µg/mL [5, 12]: 33.8%
- inhibition at 10 µg/mL [5, 13]: 55.2%
- inhibition at 20 µg/mL [5, 14]: 87.2%
- EC50 (Banana Fusarium wilt): 9.22 µg/mL
- inhibition at 1 µg/mL (Banana Fusarium wilt; [11]): 13.5%
- inhibition at 5 µg/mL (Banana Fusarium wilt; [12]): 30.2%
- inhibition at 10 µg/mL (Banana Fusarium wilt; [13]): 60.5%
- inhibition at 25 µg/mL (Banana Fusarium wilt; [16]): 67.6%
- inhibition at 50 µg/mL (Banana Fusarium wilt; [17]): 80.4%
- EC50 [6]: 7.13 µg/mL
- inhibition at 0.1 µg/mL [6, 10]: 10.1%
- inhibition at 2 µg/mL ([6]; 2 mg/L, read-out: Inhibition rate (%)): 22.3%
- inhibition at 5 µg/mL [6, 12]: 42.1%
- inhibition at 15 µg/mL [6, 15]: 61.3%
- inhibition at 25 µg/mL [6, 16]: 83.5%
- EC50 [7]: 1.5 µg/mL
- inhibition at 0.1 µg/mL [7, 10]: 17.2%
- inhibition at 1 µg/mL [7, 11]: 43.5%
- inhibition at 5 µg/mL [7, 12]: 63.7%
- inhibition at 10 µg/mL [7, 13]: 77.9%
- inhibition at 20 µg/mL [7, 14]: 85.8%
- EC50 (Aspergillus): 5.03 µg/mL
- inhibition at 0.1 µg/mL (Aspergillus; [10]): 10.6%
- inhibition at 1 µg/mL (Aspergillus; [11]): 27.4%
- inhibition at 5 µg/mL (Aspergillus; [12]): 47.8%
- inhibition at 10 µg/mL (Aspergillus; [13]): 58.4%
- inhibition at 25 µg/mL (Aspergillus; [16]): 71.4%
- inhibition at 50 µg/mL (Aspergillus; [17]): 86.1%
- EC50 (Rhizopus sp.): 4.18 µg/mL
- inhibition at 1 µg/mL (Rhizopus sp.; [11]): 18.4%
- inhibition at 5 µg/mL (Rhizopus sp.; [12]): 53.1%
- inhibition at 10 µg/mL (Rhizopus sp.; [13]): 69.3%
- inhibition at 15 µg/mL (Rhizopus sp.; [15]): 83.6%
- inhibition at 20 µg/mL (Rhizopus sp.; [14]): 88.5%
- EC50 [8]: 1.92 µg/mL
- inhibition at 0.1 µg/mL [8, 10]: 9.84%
- inhibition at 1 µg/mL [8, 11]: 40.2%
- inhibition at 5 µg/mL [8, 12]: 62.3%
- inhibition at 10 µg/mL [8, 13]: 76.6%
- inhibition at 15 µg/mL [8, 15]: 84.8%
- Ames test (Ames test): Negative
- prevention and treatment effect [9]: good prevention and treatment effect
- Disease index ([9]; 100 mg/L): 59.96
- Efficacy (%) ([9]; 100 mg/L): 61.67%
- Disease index ([9]; 500 mg/L): 46.87
- Efficacy (%) ([9]; 500 mg/L): 70.04%
- in vitro effect (Helminthosporum maydis): particularly effective
- inhibition at 0.3 µg/mL (Helminthosporum maydis; 0.3 mg/L, read-out: Inhibition rate (%)): 86.1%
- inhibition at 3 µg/mL (Helminthosporum maydis; 3 mg/L, read-out: Inhibition rate (%)): 100%
- inhibition at 30 µg/mL (Helminthosporum maydis; 30 mg/L, read-out: Inhibition rate (%)): 100%
